Counter-ions that a name gives are not always drawn.
Tests used:
[1] = tested on: nanobacteria; experiment: Antibiotic susceptibility of nanobacteria, Minimal Inhibition Concentration (MIC) in 96-well plates; assay type: cell-based
Experimental: Antibiotic sensitivity tests were carried out by measuring Minimal Inhibition Concentration (MIC), a common practice in clinical microbiology.
The tests were performed in 96-well plates. DMEM (commercial cell culture medium) containing 10% gamma-irradiated fetal bovine serum (FBS)(dose about 3 Mrads; this treatment inactivates nanobacteria in the serum so that the basic medium is sterile) was used as the basic culture medium. These components are commercially available, e.g., from Gibco. The antibiotic stock solutions were sterile filtered through 0.2 micrometer filters. The stock solutions were then serially diluted (into the basal culture medium) to provide a final starting concentration of 0.5 mg/ml and 1:2 dilutions therefrom, unless otherwise specified. For each antibiotic three parallel tests were performed using all the antibiotic dilutions and, additionally, positive and negative control experiments. […] 100 μl of dilutions of the nanobacteria inoculum were added to all wells except the negative controls. The plates were incubated at mammalian cell culture conditions (37° Celsius, 5% carbon dioxide, 95% humid air). The absorbance values at 650 nm were recorded by using an ELISA reader at the start, and at 4, 8, 12, 14 days. […] Calculations were based on absorbance curves where absorbance was plotted against concentration of the antibiotic.

[2] = tested on: SF-nanobacteria; experiment: Chemical disinfection of SF-nanobacteria; assay type: cell-based; set-up: Resistance of SF-nanobacteria to chemical disinfectants (survival), exposure time 10 min: key to the marks not given beside the values; conditions: for Resistance of SF-nanobacteria to chemical disinfectants (survival), exposure time 10 min: 10 min exposure at room temperature; for Resistance of SF-nanobacteria to chemical disinfectants (survival), exposure time 10 min / Resistance of SF-nanobacteria to chemical disinfectants (survival), exposure time 30 min: survival after subculture compared to diluent only; for Resistance of SF-nanobacteria to chemical disinfectants (survival), exposure time 30 min: 30 min exposure at room temperature; for Effect of chemical treatment on SF-nanobacteria (in words): room temperature exposure
From the text: The cultures were exposed to the disinfectants after removal of the culture medium. For the autoclaving, UV, microwave, and drying treatments, the medium was removed and an equal amount of PBS used instead. For the heat treatments, the SF-nanobacteria were harvested by scraping the culture vessel followed by centrifugation of the medium. The obtained pellet was suspended in PBS and used in the test. After treatments the SF-nanobacteria were subcultured in DMEM medium and the growth followed by light microscopy to see the adherence and typical mineralization.
The concentrations of the chemicals used were those commonly used for disinfection or as instructed by the manufacturer. The chemicals included 70% ethanol, 2% glutaraldehyde, 4% formaldehyde, 0.5% hypochlorite, 3% hydrogen peroxide, 1M hydrochloric acid (HCl), 1M sodium hydroxide (NaOH), 1% sodium dodecyl sulfate (SDS), 1% Tween 80, 1% Triton X-100, 3M guanidium-hydrochloride, 3M urea, 1% Virkon® (Antec International Ltd., Suffolk, England; 100% product contains 50% potassium persulfate, 5% sulfaminoic acid), 1.5% Erifenol® (Orion OY, Finland; 100% product contains <5% NaOH, <5% o-benzyl-p-chlorophenol, 5-15% p-chloro-m-cresol), 1% Klorilli® (Orion OY, Finland; 100% product contains sodium metasilicate, sodium N-chloro-p-toluenesulfonamide-3-hydrate and 20,000 ppm active chlorine), and 3% Buraton® (Schulke & Mayr, Germany; 100% product contains 4.5% formaldehyde, 6.8% glyoxal, 1.5% glyoxylic acid, 6% dimethylaurylbenzyl-ammonium chloride). The dilutions to be used were freshly prepared on the day of exposure in sterile distilled water. As a positive control, only diluent was used. Negative control contained only culture medium.
The SF-nanobacteria were exposed to the chemicals for 10 and 30 minutes at room temperature after removal of the culture medium. After exposure, the disinfectant solution was removed and fresh medium added (with a neutralization step in the case of HCl and NaOH). If any significant deattachment occurred, nanobacteria were recovered by centrifugation, and subcultured.

[3] = tested on: bone resorption; conditions: both in vitro and in vivo; cited from earlier work
[4] = tested on: nanobacteria; experiment: Treatment of human patients infected with nanobacteria; assay type: in vivo; conditions: person, chronic fatigue syndrome
[5] = tested on: nanobacterial biofilm; experiment: Nanobacterial biofilm formation on commercial stents in vitro; assay type: cell-based, nanobacteria; conditions: salts added to the culture medium; two commercial plastic-type stents
From the text: (§1) Nanobacteria also absorb some heavy metals. Nanobacteria can be stained well with silver or copper compounds. […] Silver and copper parts or platings on surfaces, such as catheters or stents, can provide an antinanobacterial effect by preventing nanobacterial biofilm formation. In in vitro tests nanobacteria avidly formed biofilm on two different commercial stents made of a plastic type of material. This biofilm formation was prevented by the addition of silver or copper salts to the culture medium.

[6] = tested on: nanobacteria; experiment: Nanobacterial growth in culture media with metal ions; assay type: cell-based; conditions: added to culture media at submillimolar levels
From the text: as §1

[7] = tested on: serum nanobacteria; experiment: Antibiotic sensitivity test of serum nanobacteria (cell culture antibiotics); assay type: cell-based; conditions: 100 μg/ml, cultured one month in medium containing 10% fetal bovine serum
Experimental: Nanobacteria were cultured with 10% fetal bovine serum in DMEM medium (serum nanobacteria) for one month at 37° C. in an atmosphere of 5% CO2-95% air. The cultures were harvested by centrifugation. For the autoclaving, UV, microwave, heating and drying treatments, the harvested nanobacteria were suspended in phosphate buffered saline (pH 7.4; PBS). After treatments, subculturing of the nanobacteria was made in 10% gamma irradiated fetal bovine serum in DMEM medium. The growth of serum nanobacteria was followed by light microscopy and absorbance measurement with a spectrophotometer at 650 nm.
The 1× concentrations are those recommended for cell culture. After 10 days culture in 10% serum containing DMEM with the antibiotic, growth was compared to that of nanobacteria cultures without antibiotics present.

[8] = tested on: nanobacterial stone formation on human teeth; conditions: fluoride concentrations typically present in toothpastes
[9] = tested on: calculus formation on teeth; conditions: laboratory animals; cited from earlier work

Compound | Kind of antinanobacterial effect in the in vitro test (in words) [1] | Resistance of SF-nanobacteria to chemical disinfectants (survival), exposure time 30 min [2] | other results
C[C@H]1c2cccc(O)c2C(=O)C2=C(O)[C@]3(O)C(=O)C(C(N)=O)=C(O)[C@@H](N(C)C)[C@@H]3[C@@H](O)[C@@H]21 [Doxycyclin, Doxycycline] | effective on inhibiting nanobacterial growth | – | MIC values calculated from the 8 day results ([1]; 8 day results): around 1 mg per liter; Stability under the test conditions ([1]; MIC test culture conditions): not stable under the test conditions
Triton X-100 [1% Triton X-100] | – | +++ | Resistance of SF-nanobacteria to chemical disinfectants (survival), exposure time 10 min [2]: +++
Vitamin D | very weak inhibitory effect | – | –
O=CCCCC=O [2% glutaraldehyde, glutaraldehyde] | – | +++ | Resistance of SF-nanobacteria to chemical disinfectants (survival), exposure time 10 min [2]: +++
CN[C@H](CC(C)C)C(=O)N[C@H]1C(=O)N[C@@H](CC(N)=O)C(=O)N[C@H]2C(=O)N[C@H]3C(=O)N[C@H](C(=O)N[C@H](C(=O)O)c4cc(O)cc(O)c4-c4cc3ccc4O)[C@H](O)c3ccc(c(Cl)c3)Oc3cc2cc(c3O[C@@H]2O[C@H](CO)[C@@H](O)[C@H](O)[C@H]2O[C@H]2C[C@](C)(N)[C@H](O)[C@H](C)O2)Oc2ccc(cc2Cl)[C@H]1O [Vancomycin] | effective bacteriostat against nanobacteria at relatively high concentrations | – | –
CCO [70% ethanol, ethanol] | – | +++ | Resistance of SF-nanobacteria to chemical disinfectants (survival), exposure time 10 min [2]: +++
O=C(O)CC(O)(CC(=O)O)C(=O)O [Citrate] | effective antinanobacterial agent | – | –
NCCCC(O)(P(=O)(O)O)P(=O)(O)O [alendronate] | – | – | Potency relative to etidronate [3]: approximately 700 fold
NC(N)=O [3M Urea, urea] | – | +++ | Resistance of SF-nanobacteria to chemical disinfectants (survival), exposure time 10 min [2]: +++
Cl [1M HCl, hydrochloric acid] | – | ++ | Effect of chemical treatment on SF-nanobacteria (in words) [2]: dissolved the apatite layer of nanobacteria, but remineralization was observed after addition of culture medium
N=C(N)N [3M Guanidium HCl, guanidium-hydrochloride] | – | 0 | Effect of chemical treatment on SF-nanobacteria (in words) [2]: resulted in the deattachment of the SF-nanobacteria
CC(=O)Oc1ccccc1C(=O)O [Acetylsalicylic acid] | weak | – | –
CN(C)[C@@H]1C(O)=C(C(N)=O)C(=O)[C@@]2(O)C(O)=C3C(=O)c4c(O)cccc4[C@@](C)(O)[C@H]3C[C@@H]12 [tetracycline HCl] | – | – | Nanobacteria status of patient samples ([4]; 500 mg 4 times per day for one month, then 500 mg twice a day for 5 months, urine and serum samples): nanobacteria negative after one month therapy; Patient's condition ([4]; after one month therapy): improved
silver | – | – | Biofilm formation on stents [5]: prevented; Nanobacterial growth [6]: prevented nanobacterial growth
CCCCCCCC/C=C\CCCCCCCC(=O)OCCOCC(OCCO)C1OCC(OCCO)C1OCCO (stereo not shown) [1% Tween 80, Tween 80] | – | +++ | Resistance of SF-nanobacteria to chemical disinfectants (survival), exposure time 10 min [2]: +++
CC1(C)S[C@@H]2[C@H](NC(=O)[C@H](N)c3ccccc3)C(=O)N2[C@H]1C(=O)O [Ampicillin] | weak bacteriostatic effect | – | –
O=P(O)(O)C(Cl)(Cl)P(=O)(O)O [Chlodronate] | bacteriocidic effect | – | –

Compound | Kind of antinanobacterial effect in the in vitro test (in words) [1] | Resistance of SF-nanobacteria to chemical disinfectants (survival), exposure time 30 min [2] | other results
CCCCCCCCCCCCOS(=O)(=O)[O-].[Na+] [1% SDS, sodium dodecyl sulfate] | – | +++ | Resistance of SF-nanobacteria to chemical disinfectants (survival), exposure time 10 min [2]: +++
[Cu] [copper] | – | – | Biofilm formation on stents [5]: prevented; Nanobacterial growth [6]: prevented nanobacterial growth
C=O [4% formaldehyde, formaldehyde] | – | +++ | Resistance of SF-nanobacteria to chemical disinfectants (survival), exposure time 10 min [2]: +++
[Na+].[OH-] [1M NaOH, sodium hydroxide] | – | +++ | Resistance of SF-nanobacteria to chemical disinfectants (survival), exposure time 10 min [2]: +++
[H]/N=C(/N)N[C@H]1[C@H](O)[C@@H](O)[C@H](O[C@@H]2O[C@@H](C)[C@](O)(C=O)[C@H]2O[C@@H]2O[C@@H](CO)[C@H](O)[C@@H](O)[C@@H]2NC)[C@@H](N/C(N)=N\[H])[C@@H]1O [Streptomycin] | bacteriostatic effects at high antibiotic concentrations | – | –
O=C(O)CN(CCOCCOCCN(CC(=O)O)CC(=O)O)CC(=O)O [EGTA] | antinanobacterial effects | – | –
Neomycin | bacteriostatic effects at high antibiotic concentrations | – | –
Gentamycin | bacteriostatic effects at high antibiotic concentrations | – | Morphology of nanobacteria in SEM [7]: changes in the morphology
O=C(O)CN(CCN(CC(=O)O)CC(=O)O)CC(=O)O [EDTA, ethylenediaminetetraacetic acid] | antinanobacterial effects | – | –
CC(O)(P(=O)(O)O)P(=O)(O)O [Ethidronate] | bacteriocidic effect | – | –
CC1=CC(=O)c2ccccc2C1=O [Vitamin K (Menadion), Menadion] | toxic to nanobacteria at concentrations that are not harmful to mammalian cells | – | –
F [Fluoride] | – | – | Nanobacterial stone formation on human teeth [8]: inhibit nanobacterial stone formation
Nc1ccc(C(=O)O)c(O)c1 [para-aminosalicylic acid] | – | – | MIC value (in words) ([1]; compared with acetylsalicylic acid): identical with acetylsalicylic acid
COc1cc(Cc2cnc(N)nc2N)cc(OC)c1OC [Trimethoprim] | highly effective but was only bacteriostatic | – | –
Penicillin | – | – | Calculus formation [9]: do not
OO [3% H2O2, hydrogen peroxide] | – | +++ | Resistance of SF-nanobacteria to chemical disinfectants (survival), exposure time 10 min [2]: +++
OCl [0.5% hypochlorite, hypochlorite] | – | +++ | Resistance of SF-nanobacteria to chemical disinfectants (survival), exposure time 10 min [2]: +++
